Laboratory results published in US20260306460A1, “COMPOSITION FOR REMOVING AND INHIBITING SENESCENT CELLS, AND USES THEREOF” (LIFECEUTIX CO., LTD., priority 2023, published 2026).
Several values for one entry are separate records, joined by “and”; a condition that tells them apart may be missing. Identical values can stand only once.

How the values were obtained:
[1] = system: bleomycin-induced scleroderma C57BL6J mice; test: Bleomycin scleroderma in mice (p16, COL1A1 mRNA, dermal thickness), Example 24-2, Table 48; assay type: in vivo, mouse; conditions: daily for 21 days; for p16 mRNA: untreated 100 (±8.8); for Col1a1 mRNA: untreated 100 (±13.2); for Dermal Thickness: untreated 459 (±38.7)
Method: Eight-week-old male C57BL6J mice (KRIBB Laboratory Animal Resource Center) were acclimated to the experimental environment for one week. Then, 100 μl of the anticancer drug bleomyxin (1 mg/ml) was administered subcutaneously every other day to induce scleroderma for more than three weeks. Mice with scleroderma were randomly assigned to experimental and control groups. LX-403 was mixed with a 10% ethanol solution of PEG400 and administered orally at a concentration of 25 mg/kg daily for 21 days or administered directly to the skin at a concentration of 1 μM. LX-1801 was mixed with a solution of 4% DMSO, 30% PEG300, and 5% Tween80 in distilled water and administered subcutaneously at a concentration of 0.4 μM daily for 21 days. LX-2001 was mixed in PBS and administered intradermally at a concentration of 2 μM daily for 21 days. LX-2002 was mixed in distilled water with 4% DMSO, 30% PEG300, and 5% Tween80 and administered intradermally at a concentration of 2 μM daily for 21 days. […] LX-2005 was mixed in distilled water with 4% DMSO, 30% PEG300, and 5% Tween80 and administered intradermally at a concentration of 90 μM daily for 21 days. LX-2007 was mixed in distilled water with 4% DMSO, 30% PEG300, and 5% Tween80 and administered intradermally at a concentration of 90 μM daily for 21 days. […] LX-3002 was mixed with distilled water with 4% DMSO, 30% PEG300, 5% tween80 and administered orally at 10 mg/kg daily for 21 days. […] LX-5411 was mixed with 5% PBS and administered orally at 10 mg/kg daily for 21 days or subcutaneously at 3 μM. LX-5701 was mixed with PBS and administered orally at 360 mg/kg daily for 21 days. LX-6807 was mixed in saline and administered intraperitoneally at a concentration of 1 mg/kg daily for 21 days. The control group was administered only the solution in the same volume. After the end of drug administration, mice were sacrificed in the same manner as in Example 7-2 of WO2023-085787 A1, RNA was extracted from skin tissue, and the synthesized cDNA was used to perform and analyze the mRNA amounts of p16 and collagen (COL1A1) by qRT-PCR (quantitative real-time PCR). In addition, to measure the degree of bleomycin-induced skin hardening, skin frozen sections were stained with H/E (Hematoxylin/Eosin), and the thickness of the dermis was observed under an optical microscope.

[2] = system: naturally aged C57BL6J mice; test: Cataract incidence in naturally aged mice, Example 21-15, Table 30; assay type: in vivo, mouse; conditions: orally twice a week, 360 mg/kg, until death, untreated aged 83
Method: (§1) 22-month-old female C57BL6J mice (KRIBB Laboratory Animal Resource Center) were acclimated to the experimental environment for one week, after which the aged mice were randomly assigned to experimental and control groups. Eight-week-old, non-aged mice served as controls. LX-403 was mixed in a 10% ethanol solution of PEG400 and administered orally at a concentration of 25 mg/kg daily for 21 days, or administered to the skin, joints, or eyes at a concentration of 1 μM. LX-1801 was mixed in distilled water with 4% DMSO, 30% PEG300, and 5% Tween80 and administered to the skin, joints, or eyes at a concentration of 0.4 μM daily for 21 days. LX-2001 was mixed in PBS and administered to the skin, joints, or eyes at a concentration of […] daily for 21 days. LX-2002 was mixed in distilled water with 4% DMSO, 30% PEG300, and 5% Tween80 and administered to the skin, joints, or eyes at a concentration of 2 μM daily for 21 days. […] LX-2005 was mixed in distilled water with 4% DMSO, 30% PEG300, and 5% Tween80 and administered to the skin, joints, or eyes at a concentration of 90 μM daily for 21 days. LX-2007 was mixed in distilled water with 4% DMSO, 30% PEG300, and 5% Tween80 and administered to the skin, joints, or eyes at a concentration of 90 μM daily for 21 days. […] LX-3002 was mixed in distilled water with 4% DMSO, 30% PEG300, and 5% Tween80 and administered orally at a concentration of 10 mg/kg daily for 21 days. […] LX-5411 was mixed in 5% PBS and administered orally at a concentration of 10 mg/kg daily for 21 days or administered to the skin, joints, or eyes at a concentration of 3 μM. LX-5701 was mixed in PBS and administered orally at a concentration of 360 mg/kg daily for 21 days. LX-6807 was mixed in saline and administered intraperitoneally at a concentration of 1 mg/kg daily for 21 days. LX-2101 or LX-2102 was mixed in PBS solution with 5% DMSO and administered intraperitoneally at a concentration of 20 mg/kg or 10 mg/kg, respectively, daily for 21 days. The control group received only the solution in the same volume. After the end of drug administration, the methods described in each example below were performed.
Cataracts, which occur with age, are a disease that causes visual impairment due to clouding of the lens and are a major cause of blindness. The mice of Example 21-1 were treated with the test compound mixed in PBS orally twice a week at a concentration of 360 mg/kg. Cataract development was assessed biweekly until death.

[3] = system: senescent foreskin cells; test: Survival of senescent human cells treated with supernatant (secreted fluid) from death-induced cells, Example 13; assay type: cell-based; conditions: senescent treated cells; for viability at 30 µM: Homo sapiens, 72 h
Method: After 3 days, cell viability was measured using CellTiter-Glo Luminescent Cell Viability Assay (Promega) or light microscopy.
During this additional culture, by checking with an optical microscope, etc., the medium supernatants containing secreted fluid from normally proliferating and senescent cells in which cell death was induced were obtained. The obtained medium supernatant was replaced with the medium of normally proliferating and senescent cells, respectively, and cell survival rate was measured after 3 days.

[4] = system: naturally aged C57BL6J mice; test: Hot plate joint pain test in naturally aged mice, Example 21-12, Table 27; assay type: in vivo, mouse; conditions: hot plate 55° C., untreated aged 6.9 (±1.8)
Method: as §1
RNA was extracted from joint tissue as described in Example 7-2 of WO2023-085787 A1, and qRT-PCR was performed using the synthesized cDNA. […] To analyze joint pain due to joint aging, hotplate analysis was performed. Specifically, thermal pain thresholds were measured using a hot plate. After acclimating mice to a temperature of 30° C. for 10 minutes, the time required for hind paw licking or jumping responses to occur at 55° C. was measured. To prevent tissue damage, the response was measured for less than 30 seconds, and the average value was used from five measurements.

[5] = system: NaIO3-induced retinal degenerative C57BL6J mice; test: NaIO3 retinal degeneration in mice (p16 mRNA, outer nuclear layer thickness), Example 29, Table 53; assay type: in vivo, mouse; conditions: daily for 21 days; for Outer nuclear layer thickness: untreated 27.4 (±1.3); for p16 mRNA: untreated 100%
Method: Then, retinal degenerative diseases were induced for more than 7 days by intravenous administration of 20 mg/kg of NaIO3, an oxidizing agent that induces retinal pigment epithelial cell death and retinal degeneration. Mice with retinal degenerative diseases were randomly assigned to experimental and control groups. […] The control group received only the solution in the same volume. […] In addition, frozen sections of the other eye tissue were stained with H/E (Hematoxylin/Eosin), and the thickness of the outer nuclear layer (ORL) was observed under an optical microscope. […] The mRNA amount after aging induction was calculated as 100% and compared with the mRNA amount of p16 after treatment with the test compound.

[6] = Table 8, supernatant from dying senescent cells treated at 30, 90 or 270 μM (as Example 11)

SMILES	p16 mRNA [1]	Col1a1 mRNA [1]	Dermal Thickness [1]	Cataract incidence (%) [2] [%]	Survival [3, 6]	Response time (s) [4]	Outer nuclear layer thickness [5]	p16 mRNA [5]	viability at 30 µM ([3]; supernatant from death-induced proliferating cells, 3 days) [%]	viability at 30 µM ([3]; supernatant from death-induced senescent cells, 3 days) [%]	Survival ([3]; supernatant from No Cells, 3 days)
O=C(C(C[N+](=O)[O-])=NO)N1CCN(C(c2ccc(Cl)cc2)c2ccc(Cl)cc2)CC1 [LX-403]	34.7 (±4.1) %	45.7 (±4.5) %	356 (±36.3) μm	57	45.1	5.6 (±0.7) s	40.1 (±1.9) μm	34 (±2.2) %			
COC(=O)c1ccc([C@H]2c3[nH]c4ccccc4c3C[C@H](C(=O)OC)N2C(=O)CCl)cc1 [LX-405]									41.3	52.7	102.8 (±4.6) %
S=C(N/N=C1\CCCc2cccnc21)N1CCN(c2ccccn2)CC1 [LX-801]					52.7						
C[C@@H]1CC[C@@]23C[C@H](O)C(=O)[C@@]2(O)[C@]1(C)[C@H](OC(=O)CCl)C[C@@H](C1=CCn2c(=O)n(-c4ccccc4)c(=O)n2C1)[C@@H]3C [LX-1801, (2S,3aS,4S,5R,7R,8S,8aS,11R)-7-(1,3-Dioxo-2-phenyl-2,3,5,8-tetrahydro-1H-[1,2,4]triazolo[1,2-a]pyridazin-6-yl)-2,3a-dihydroxy-4,8,11-trimethyl-3-oxooctahydro-1H-4,8a-propanoazulen-5-yl 2-Chloroacetate]	35.4 (±5.6) %	47.8 (±4.7) %	418 (±42.3) μm	68	41.6	4.9 (±1.1) s	32.7 (±2.6) μm	42 (±4.4) %			
C[C@H]1[C@H](C)CC[C@]2(C(=O)O)CC[C@]3(C)C(=CC[C@@H]4[C@@]5(C)CC[C@H](O)C(C)(C)[C@@H]5CC[C@]43C)[C@H]12 [LX-2001, Ursolic acid]	64.2 (±4.4) %	62.8 (±5.6) %	394 (±78.4) μm	75	57.8	5.0 (±0.9) s	34.1 (±5.1) μm	61 (±4.1) %			
C[C@H]1[C@H](C)CC[C@]2(C(=O)O)CC[C@]3(C)C(=CC[C@@H]4[C@@]5(C)C[C@@H](O)[C@H](O)C(C)(C)[C@@H]5CC[C@]43C)[C@H]12 [LX-2002, Corosolic acid]	51.3 (±2.6) %	71.2 (±4.2) %	427 (±60.1) μm	71	58.3	5.3 (±0.6) s	30.1 (±7.8) μm	60 (±3.8) %			
CC1(C)CC[C@]2(C(=O)O)CC[C@]3(C)C(=CC[C@@H]4[C@@]5(C)CC[C@H](O)C(C)(C)[C@@H]5CC[C@]43C)[C@@H]2C1 [LX-2003, Oleanolic acid]	72.4 (±5.8) %	73.8 (±3.5) %	411 (±81.3) μm	69	64.2	5.1 (±0.7) s	31.2 (±8.7) μm	52 (±6.3) %			
CC1(C)CC[C@]2(NC(=O)C(C)(F)F)CC[C@]3(C)[C@H](C(=O)C=C4[C@@]5(C)C=C(C#N)C(=O)C(C)(C)[C@@H]5CC[C@]43C)[C@@H]2C1 [LX-2101, Omaveloxolone]				77	39.7	5.1 (±0.4) s	29.4 (±7.5) μm and 39 (±4.1) μm	80 (±2.7) % and 67 (±7.0) %			
COC(=O)[C@]12CCC(C)(C)C[C@H]1[C@H]1C(=O)C=C3[C@@]4(C)C=C(C#N)C(=O)C(C)(C)[C@@H]4CC[C@@]3(C)[C@]1(C)CC2 [LX-2102, Bardoxolone methyl]					46.3						
CCCC\C=C/C=C/C=C\CCCCCCCC(=O)O [LX-2707, Punicic acid]	67.5 (±4.7) %	64.1 (±2.0) %	389 (±23.6) μm	48		5.4 (±0.6) s	31.8 (±1.7) μm	76 (±5.4) %			
COC(=O)[C@H]1Cc2c([nH]c3ccccc23)[C@H](c2ccc(S(C)(=O)=O)cc2)N1C(=O)CCl [LX-5401, methyl (1S,3R)-2-(2-chloroacetyl)-1-(4-(methylsulfonyl)phenyl)-2,3,4,9-tetrahydro-1H-pyrido[3,4-b]indole-3-carboxylate]	61.2 (±6.7) %	74.6 (±2.4) %	401 (±46.3) μm	69		5.9 (±0.2) s					
C#CC(=O)N1[C@@H](CCCC)Cc2cc(OC)ccc2[C@@H]1c1ccc(NC23CC4CC(CC(C4)C2)C3)cc1 [LX-5411]	43.8 (±3.0) %	55.3 (±1.6) %	376 (±47.1) μm	61		4.7 (±0.4) s	43.7 (±4.2) μm	43 (±2.5) %			
O=C1C2CCN(CC2)C1CNC(=O)C(F)(F)F (centres unmarked) [LX-5701]	64 (±9.4) %	59.7 (±17.3) %	358 (±21.4) μm	64		4.6 (±1.3) s	52.7 (±3.2) μm	67 (±7.3) %			
Cc1cccc([C@H](C)c2cnc[nH]2)c1C [LX-6807, Dexmedetomidine]	64.7 (±3.5) %	37.6 (±2.5) %	315 (±29.8) μm	61		4.8 (±0.4) s	50.8 (±3.2) μm	64 (±4.4) %			
